Reference: patent US6958352B2, “Compounds for inhibiting insulin secretion and methods related thereto” (SmithKline Beecham Corporation, priority 2002, dated 2005)
Like-named read-outs stand apart in the source and are kept apart here.

Columns and labels:
[1] = system: INS-1 rat insulinoma cells; test: Insulin secretion by INS-1 cells, insulin radioimmunoassay; format: cell-based; conditions: 8 mM glucose vs basal; FIG. 1
Method: INS-1 rat insulinoma cells were provided by Prof. Claes Wollheim, University Medical Centre, Geneva, Switzerland, and cultured at 37° C. in a humidified 5% CO2 environment in RPMI cell culture media (Gibco BRL, Gaithersburg, Md.) supplemented with 10% fetal bovine serum (Irvine Scientific, Irvine, Calif.), 2 mM L-glutamine, 100 U/ml penicillin, 100 μg/ml streptomycin, 10 mM HEPES, 1 mM sodium pyruvate and 50 μM β-mercaptoethanol (all reagents Sigma, St. Louis, Mo., unless otherwise noted).
INS-1 cells were seeded into 24-well plates containing RPMI media supplemented as described at 0.5×10^6 cells/well and cultured at 37° C., 5% CO2 for 2 days. Cells at or near confluence (0.7×10^6 cells/well) were rinsed with glucose-free KRH buffer (134 mM NaCl, 4.7 mM KCl, 1.2 mM KH2PO4, 1.2 mM MgSO4, 1.0 mM CaCl2, 10 mM HEPES-pH 7.4, 25 mM NaHCO3, 0.5% BSA), then incubated in the same buffer for 1 hr at 37° C. in a humidified 5% CO2/95% air atmosphere. […] Insulin concentrations in the supernatants were measured and normalized to cell number using an insulin-specific radioimmunoassay kit (ICN Biochemicals, Irvine, Calif.) according to the manufacturer's instructions.

[2] = system: rat pancreatic islet cells; test: Insulin secretion by rat pancreatic islet cells (FIG. 2); format: cell-based; conditions: basal (5 mM) or supraphysiological (8 mM) glucose
[3] = system: Pancreatic islets of Langerhans; test: Glucose-stimulated insulin secretion (GSIS) by isolated pancreatic islets, insulin ELISA; format: cell-based, rat; conditions: concentration of 1 μM
Method: Pancreatic islets of Langerhans were isolated from adult male Sprague-Dawley rats using a standard collagenase infusion and digestion procedure as described in Example 16. Islets were cultured at 37° C. for 1-2 days in CMRL-1066 medium supplemented with 5.5 mM glucose, 10% fetal bovine serum, 100 U/ml penicillin and 100 μg/ml streptomycin, in a humidified atmosphere containing 5% CO2. Islets were manually picked and washed in Krebs Ringer Bicarbonate buffer (KRB: 134 mM NaCl, 4.7 mM KCl, 1.2 mM KH2PO4, 1.2 mM MgSO4, 1 mM CaCl2, 10 mM NaHCO3, pH 7.4) in preparation for measurement of glucose-stimulated insulin secretion (GSIS). […] Cell-conditioned media samples were then collected by centrifugation and their insulin content was determined using enzyme-linked immunosorbent assay (ELISA) kits (CrystalChem or ALPCO rat insulin ELISA) according to the kit supplier's instructions. Following treatment with a preferred compound, the concentration of insulin detected in the islet-conditioned medium was at least 1.5 times the insulin concentration detected in the medium conditioned by islets that were exposed to 8 mM glucose.
At a concentration of 1 μM, CGP37157 stimulated islet GSIS by 222 (±48) % relative to GSIS detected with 8 mM glucose. […]

[4] = target: T1, mitochondrial calcium/sodium antiporter (Rattus norvegicus, UniProt Q6AXS0); test: Inhibition of mitochondrial calcium/sodium antiporter activity (NaCl-induced mitochondrial calcium efflux, calcium green 5N fluorescence); format: cell-based; conditions: digitonin-permeabilized INS-1 cells, 20 mM NaCl
T1 sequence (Q6AXS0 1-585): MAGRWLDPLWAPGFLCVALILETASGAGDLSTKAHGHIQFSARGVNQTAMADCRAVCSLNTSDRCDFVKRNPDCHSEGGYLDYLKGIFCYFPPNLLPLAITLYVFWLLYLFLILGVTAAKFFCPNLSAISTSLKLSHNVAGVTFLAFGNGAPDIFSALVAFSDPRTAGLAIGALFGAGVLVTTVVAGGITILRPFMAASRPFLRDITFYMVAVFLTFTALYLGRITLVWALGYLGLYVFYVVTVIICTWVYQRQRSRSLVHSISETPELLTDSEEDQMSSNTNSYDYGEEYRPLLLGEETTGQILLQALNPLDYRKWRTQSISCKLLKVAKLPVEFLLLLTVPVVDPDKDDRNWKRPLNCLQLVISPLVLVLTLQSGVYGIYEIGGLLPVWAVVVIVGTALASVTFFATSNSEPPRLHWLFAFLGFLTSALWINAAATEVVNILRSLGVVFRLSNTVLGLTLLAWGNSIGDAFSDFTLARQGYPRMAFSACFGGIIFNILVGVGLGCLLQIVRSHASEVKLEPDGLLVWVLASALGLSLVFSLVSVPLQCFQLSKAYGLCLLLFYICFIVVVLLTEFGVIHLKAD
Method: INS-1 rat insulinoma cells (see Example 16) were harvested by trypsinization, washed and resuspended at 10×10^6 cells/ml in assay buffer (250 mM sucrose, 10 mM HEPES, 2.5 mM K2HPO4, 5 mM succinate, pH 7.4) containing 0.007% digitonin, 60 μM CaCl2 and 0.05 μM calcium green 5N (Molecular Probes, Inc., Eugene, Oreg.). After a five-minute calcium loading incubation, ruthenium red (1 μM; Sigma, St. Louis, Mo.) was added to block further calcium uptake by mitochondria. Cell suspensions were dispensed into 96-well plates (100 μl per well, 1×10^6 cells per well) and candidate agents (i.e., candidate mitochondrial calcium/sodium antiporter inhibitors) were added to some sets of triplicate wells at concentrations of 1, 10 or 100 μM, while other sets of wells provided appropriate control conditions (e.g., buffer and vehicle controls). Baseline fluorescence measurements were made using a multiwell plate fluorimeter (F-MAX™, Molecular Devices Corp., Sunnyvale, Calif.; or PolarStar™, BMG Labtechnologies, Inc., Durham, N.C.) according to the manufacturer's instructions. Calcium efflux from mitochondria was then induced by adding NaCl to all wells to achieve a final concentration of 20 mM, and the rate of change in fluorescence in each well was monitored […] for two minutes and quantified using software included with the plate reader.

[5] = system: C57BLKs-db/db mice; test: Glucose tolerance in mutant db/db mice after oral administration; format: in vivo, mouse; conditions: 100 mg/kg orally one hour before 1 gm glucose/kg i.p.; relative to vehicle control; p<0.05
Text: This Example illustrates the effects of a representative compound on glucose tolerance in an established animal model of type II diabetes mellitus, the db/db mutant mouse. As a brief background, the recessive db mutation has been localized to murine chromosome 4, and homozygous recessive (db/db) individuals are characterized by, inter alia, obesity, hyperphagia, transient increases in plasma insulin concentrations, hyperglycemia, abnormal immune and renal functions, diabetic neuropathy and myocardial disease (see, e.g., Hummel et al., 1966 Science 153:1127; Herberg et al., 1977 Metabolism 26:59; Leiter et al., 1981 Metabolism 30:554; Guenet et al., 1982 Mouse News Letter 67:30; Guenet et al., 1984 Mouse News Letter 70:95; Bray et al., 1971 Physiol. Rev. 51:598; Bailey et al., 1989 J. Endocrinol. 123:19-24; Bray et al., 1979 Physiol. Rev. 59:719; Sima et al., 1979 Lab. Invest. 40:627; Sima et al., 1978 Acta Nettropathol. […]
16o (dissolved in vehicle: 10% (v/v) EtOH, 10% (v/v) polyethylene glycol-400, 30% (v/v) propylene glycol, 50% (v/v) H2O) was administered orally at a dosage of 100 mg/kg body weight to eight-week old mutant C57BLKs-db/db mice (Harlan Bioproducts for Science, Inc., Indianapolis, Ind.). […] Glucose concentrations in each blood sample were determined using OneTouch® glucose test strips (LifeScan, Inc., Milpitas, Calif.) according to the manufacturer's instructions. […]

[6] = Table 3, more preferred compounds, read-out: IC50 ≦ 1 μM
[7] = Table 2, preferred compounds, read-out: IC50 ≦ 10 μM

| SMILES | IC50 [4, 6] [µM] | IC50 [4, 7] [µM] | also measured |
| --- | --- | --- | --- |
| O=C1CSC(c2ccccc2Cl)c2cc(Cl)ccc2N1 (stereo not drawn) [CGP37157, 7-Chloro-5-(2-chlorophenyl)-1,5-dihydro-4,1-benzothiazepin-2(3H)-one] |  |  | glucose stimulated insulin secretion by INS-1 cells [1]: enhanced glucose stimulated insulin secretion; glucose stimulated insulin secretion on rat pancreatic islet cells [2]: enhanced glucose stimulated insulin secretion; stimulated islet GSIS relative to GSIS detected with 8 mM glucose [3]: 222 (±48) % |
| COc1cc(C(=O)NCCSC(c2cc(Cl)ccc2N)C2CCCCC2)cc(OC)c1OC (stereo not drawn) [Compound 16o] | ≤ 1 |  | peak blood glucose levels after the glucose bolus [5]: lower peak blood glucose levels; return of blood glucose to baseline [5]: returned to a lower baseline more rapidly |
| O=[N+]([O-])c1ccccc1C(CNCCc1ccccc1)c1cccc(Cl)c1 (stereo not drawn) [Compound 27b] |  |  | IC50 ([4]; IC50 ≦ 1 μM, Table 3, more preferred compounds): ≤ 1 µM; IC50 ([4]; IC50 ≦ 10 μM, Table 2, preferred compounds): ≤ 10 µM |
| COC(=O)CN(C)CC(c1cccc(Cl)c1)c1ccccc1[N+](=O)[O-] (stereo not drawn) [Compound 28a] |  | ≤ 10 |  |
| COC(=O)CSC(c1ccccc1C)c1ccccc1NC(=O)c1ccccc1 (stereo not drawn) [Compound 34c] |  | ≤ 10 |  |
| CNCCSCC(c1cc(Cl)ccc1N)c1ccccc1F (stereo not drawn) [Compound 35f] |  | ≤ 10 |  |
| Nc1ccc(Br)cc1C(CSCc1nc2ccccc2[nH]1)c1ccccc1F (stereo not drawn) [Compound 37a] |  | ≤ 10 |  |
| Cc1noc(C[S+]([O-])CC(c2cc(Cl)ccc2N)c2ccccc2Cl)n1 (stereo not drawn) [Compound 38a] |  | ≤ 10 |  |
| Nc1ccc(Cl)cc1C(c1ccccc1Cl)[S+]([O-])CC(=O)NCC(c1ccccc1)c1ccccc1 (stereo not drawn) [Compound 38c] | ≤ 1 | ≤ 10 |  |
| COc1ccc(S(=O)(=O)N2CCC(CSC(c3cc(Cl)ccc3N)C3CCCCC3)CC2)cc1OC (stereo not drawn) [Compound 40] | ≤ 1 |  |  |
| COc1cc(C(=O)N2CCC(CSC(c3cc(Cl)ccc3N)C3CCCCC3)CC2)cc(OC)c1OC (stereo not drawn) [Compound 41a] |  | ≤ 10 |  |
| COc1cc(C(=O)N2CCC(CSC(c3cc(F)ccc3N)C3CCCCC3)CC2)cc(OC)c1OC (stereo not drawn) [Compound 41b] | ≤ 1 |  |  |
